Experimental data as given in PubChem BioAssay AID1963974 (Molecular Pharmacology Branch, DTP, NCI, 2024).

Test system: 648629-189-R-J1-PDC spheroids with HUVEC/MSC, viability
Test: Anticancer human tumor 648629-189-R-J1-PDC patient-derived bladder carcinoma cell line growth inhibition [PI3K]
Conditions: for IC50: curve of first compound; for viability, T/C: stronger effect = lower value; active = viability on the fitted dose curve at most 10% of control; inactive = the rest
How it was run: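 Viability of mixed-cell spheroids was determined after exposure to pairwise combinations, one partner being inavolisib, alpelisib, duvelisib or copanlisib. Highest tested concentration matched clinical Cmax where known and 10 microM where not, descending in half-log steps.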

[1] = second compound 0.00316 µM, first compound 0.0316 µM
[2] = second compound 0.00316 µM, first compound 0.1 µM
[3] = second compound 0.00316 µM, first compound 0.316 µM
[4] = second compound 0.00316 µM, first compound 1 µM
[5] = second compound 0.00316 µM, first compound 3.16 µM
[6] = second compound 0.00316 µM, first compound 10 µM
[7] = second compound 0.01 µM, first compound 0.0316 µM
[8] = second compound 0.01 µM, first compound 0.1 µM
[9] = second compound 0.01 µM, first compound 0.316 µM
[10] = second compound 0.01 µM, first compound 1 µM
[11] = second compound 0.01 µM, first compound 3.16 µM
[12] = second compound 0.01 µM, first compound 10 µM
[13] = second compound 0.0316 µM, first compound 0.0316 µM
[14] = second compound 0.0316 µM, first compound 0.1 µM
[15] = second compound 0.0316 µM, first compound 0.316 µM
[16] = second compound 0.0316 µM, first compound 1 µM
[17] = second compound 0.0316 µM, first compound 3.16 µM
[18] = second compound 0.0316 µM, first compound 10 µM
[19] = second compound 0.1 µM, first compound 0.0316 µM
[20] = second compound 0.1 µM, first compound 0.1 µM
[21] = second compound 0.1 µM, first compound 0.316 µM
[22] = second compound 0.1 µM, first compound 1 µM
[23] = second compound 0.1 µM, first compound 3.16 µM
[24] = second compound 0.1 µM, first compound 10 µM
[25] = second compound 0.316 µM, first compound 0.0316 µM
[26] = second compound 0.316 µM, first compound 0.1 µM
[27] = second compound 0.316 µM, first compound 0.316 µM
[28] = second compound 0.316 µM, first compound 1 µM
[29] = second compound 0.316 µM, first compound 3.16 µM
[30] = second compound 0.316 µM, first compound 10 µM
[31] = second compound 1 µM, first compound 0.0316 µM
[32] = second compound 1 µM, first compound 0.1 µM
[33] = second compound 1 µM, first compound 0.316 µM
[34] = second compound 1 µM, first compound 1 µM
[35] = second compound 1 µM, first compound 3.16 µM
[36] = second compound 1 µM, first compound 10 µM
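Note: spheroids exposed to agents for seven days before reading.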
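Throughout, for viability, T/C: percent of vehicle control luminescence where 100% = DMSO treated spheroids.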

CC1(C)CCC(CN2CCN(c3ccc(C(=O)NS(=O)(=O)c4ccc(NCC5CCOCC5)c([N+](=O)[O-])c4)c(Oc4cnc5[nH]ccc5c4)c3)CC2)=C(c2ccc(Cl)cc2)C1 + CC(Nc1ccc2c(c1)OCCn1cc(N3C(=O)OCC3C(F)F)nc1-2)C(N)=O
active: viability, T/C [6] 8.54% | viability, T/C [12] 7.49% | viability, T/C [24] 7.86% | viability, T/C [30] 7.9% | viability, T/C [36] 8.61%
5.28 µM: IC50 (second compound 0.1 µM)
4.77 µM: IC50 (second compound 0.00316 µM)
inactive: viability, T/C [1] 101% | viability, T/C [2] 90.9% | viability, T/C [3] 92.9% | viability, T/C [4] 80.7% | viability, T/C [5] 76.7% | viability, T/C [7] 122% | viability, T/C [8] 88.3% | viability, T/C [9] 106% | viability, T/C [10] 86% | viability, T/C [11] 80.7% | viability, T/C [13] 110% | viability, T/C [14] 102% | viability, T/C [15] 98.2% | viability, T/C [16] 89.5% | viability, T/C [17] 71.3% | viability, T/C [18] 9.16% | viability, T/C [19] 84.5% | viability, T/C [20] 99.8% | viability, T/C [21] 90.5% | viability, T/C [22] 95.6% | viability, T/C [23] 83.8% | viability, T/C [25] 74.7% | viability, T/C [26] 76% | viability, T/C [27] 79.4% | viability, T/C [28] 77.6% | viability, T/C [29] 67.5% | viability, T/C [31] 74.2% | viability, T/C [32] 63.4% | viability, T/C [33] 62.5% | viability, T/C [34] 67.3% | viability, T/C [35] 65.7%
4.84 µM: IC50 (second compound 0.01 µM)
4.45 µM: IC50 (second compound 0.316 µM)
4.34 µM: IC50 (second compound 1 µM)
4.55 µM: IC50 (second compound 0.0316 µM)

CC1(C)CCC(Nc2ncc(C(F)(F)F)c(-c3c[nH]c4c(P(C)(C)=O)c(C#N)ccc34)n2)CN1 (stereo not drawn) + COc1c(OCCCN2CCOCC2)ccc2c3n(c(=NC(=O)c4cnc(N)nc4)nc12)CCN3
< 0.0316 µM: IC50 (second compound 0.00316 µM) | IC50 (second compound 0.01 µM) | IC50 (second compound 0.0316 µM) | IC50 (second compound 0.1 µM) | IC50 (second compound 0.316 µM) | IC50 (second compound 1 µM)
active: viability, T/C [29] 12.5% | viability, T/C [30] 1.02% | viability, T/C [31] 6.13% | viability, T/C [32] 5.76% | viability, T/C [33] 6.72% | viability, T/C [34] 8.34% | viability, T/C [35] 7.64% | viability, T/C [36] 1.32%
inactive: viability, T/C [1] 25.2% | viability, T/C [2] 25.7% | viability, T/C [3] 31.6% | viability, T/C [4] 31.4% | viability, T/C [5] 41.1% | viability, T/C [6] 4.79% | viability, T/C [7] 28.9% | viability, T/C [8] 25.2% | viability, T/C [9] 25.1% | viability, T/C [10] 30.8% | viability, T/C [11] 35.1% | viability, T/C [12] 3.26% | viability, T/C [13] 26.3% | viability, T/C [14] 23.6% | viability, T/C [15] 26.5% | viability, T/C [16] 27.7% | viability, T/C [17] 31% | viability, T/C [18] 9.93% | viability, T/C [19] 22% | viability, T/C [20] 22.2% | viability, T/C [21] 19.9% | viability, T/C [22] 21.8% | viability, T/C [23] 21% | viability, T/C [24] 1.86% | viability, T/C [25] 15.5% | viability, T/C [26] 13.7% | viability, T/C [27] 13.2% | viability, T/C [28] 16.3%

Cn1ncnc1[C@H]1c2n[nH]c(=O)c3cc(F)cc(c23)N[C@@H]1c1ccc(F)cc1 + CC(Nc1ccc2c(c1)OCCn1cc(N3C(=O)OCC3C(F)F)nc1-2)C(N)=O
inactive: viability, T/C (second compound 0.00316 µM, first compound 0.000316 µM) 108% | viability, T/C (second compound 0.00316 µM, first compound 0.001 µM) 110% | viability, T/C (second compound 0.00316 µM, first compound 0.00316 µM) 102% | viability, T/C (second compound 0.00316 µM, first compound 0.01 µM) 83.5% | viability, T/C [1] 75.6% | viability, T/C [2] 63.8% | viability, T/C (second compound 0.01 µM, first compound 0.000316 µM) 115% | viability, T/C (second compound 0.01 µM, first compound 0.001 µM) 106% | viability, T/C (second compound 0.01 µM, first compound 0.00316 µM) 97.3% | viability, T/C (second compound 0.01 µM, first compound 0.01 µM) 86.4% | viability, T/C [7] 69.4% | viability, T/C [8] 62% | viability, T/C (second compound 0.0316 µM, first compound 0.000316 µM) 101% | viability, T/C (second compound 0.0316 µM, first compound 0.001 µM) 99.2% | viability, T/C (second compound 0.0316 µM, first compound 0.00316 µM) 96% | viability, T/C (second compound 0.0316 µM, first compound 0.01 µM) 79.2% | viability, T/C [13] 82% | viability, T/C [14] 61.7% | viability, T/C (second compound 0.1 µM, first compound 0.000316 µM) 97.8% | viability, T/C (second compound 0.1 µM, first compound 0.001 µM) 93.4% | viability, T/C (second compound 0.1 µM, first compound 0.00316 µM) 105% | viability, T/C (second compound 0.1 µM, first compound 0.01 µM) 77.5% | viability, T/C [19] 70.2% | viability, T/C [20] 55.3% | viability, T/C (second compound 0.316 µM, first compound 0.000316 µM) 76% | viability, T/C (second compound 0.316 µM, first compound 0.001 µM) 86.7% | viability, T/C (second compound 0.316 µM, first compound 0.00316 µM) 73.3% | viability, T/C (second compound 0.316 µM, first compound 0.01 µM) 69.7% | viability, T/C [25] 60.9% | viability, T/C [26] 55.5% | viability, T/C (second compound 1 µM, first compound 0.000316 µM) 69.5% | viability, T/C (second compound 1 µM, first compound 0.001 µM) 60.5% | viability, T/C (second compound 1 µM, first compound 0.00316 µM) 69.2% | viability, T/C (second compound 1 µM, first compound 0.01 µM) 66% | viability, T/C [31] 61% | viability, T/C [32] 44.4%
0.0683 µM: IC50 (second compound 1 µM)
> 0.1 µM: IC50 (second compound 0.00316 µM) | IC50 (second compound 0.01 µM) | IC50 (second compound 0.0316 µM) | IC50 (second compound 0.1 µM) | IC50 (second compound 0.316 µM)

C=CC(=O)N1CCN(c2nc(=O)n(-c3c(C)ccnc3C(C)C)c3nc(-c4c(O)cccc4F)c(F)cc23)C(C)C1 (stereo not drawn) + CC(Nc1ncnc2nc[nH]c12)c1cc2cccc(Cl)c2c(=O)n1-c1ccccc1
inactive: viability, T/C [13] 106% | viability, T/C [14] 95.3% | viability, T/C [15] 107% | viability, T/C [16] 109% | viability, T/C [17] 103% | viability, T/C [18] 96.9% | viability, T/C [19] 102% | viability, T/C [20] 101% | viability, T/C [21] 125% | viability, T/C [22] 104% | viability, T/C [23] 108% | viability, T/C [24] 87.5% | viability, T/C [25] 95.4% | viability, T/C [26] 115% | viability, T/C [27] 112% | viability, T/C [28] 103% | viability, T/C [29] 112% | viability, T/C [30] 103% | viability, T/C [31] 120% | viability, T/C [32] 99.3% | viability, T/C [33] 107% | viability, T/C [34] 107% | viability, T/C [35] 101% | viability, T/C [36] 92.1% | viability, T/C (second compound 3.16 µM, first compound 0.0316 µM) 103% | viability, T/C (second compound 3.16 µM, first compound 0.1 µM) 92.1% | viability, T/C (second compound 3.16 µM, first compound 0.316 µM) 104% | viability, T/C (second compound 3.16 µM, first compound 1 µM) 101% | viability, T/C (second compound 3.16 µM, first compound 3.16 µM) 106% | viability, T/C (second compound 3.16 µM, first compound 10 µM) 98.8% | viability, T/C (second compound 10 µM, first compound 0.0316 µM) 94.2% | viability, T/C (second compound 10 µM, first compound 0.1 µM) 86.9% | viability, T/C (second compound 10 µM, first compound 0.316 µM) 96.4% | viability, T/C (second compound 10 µM, first compound 1 µM) 95.6% | viability, T/C (second compound 10 µM, first compound 3.16 µM) 89.8% | viability, T/C (second compound 10 µM, first compound 10 µM) 88.3%
> 10 µM: IC50 (second compound 0.0316 µM) | IC50 (second compound 0.1 µM) | IC50 (second compound 0.316 µM) | IC50 (second compound 1 µM) | IC50 (second compound 3.16 µM) | IC50 (second compound 10 µM)
